From PubChem BioAssay (NCI) come the findings set out here.

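Grown in 96-well plates, cells were treated for 48 hours with each compound at five concentrations. Insufficient inhibition: endpoint recorded as highest concentration tested. TGI: total growth inhibition.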

Assay in all cases: inhibition of tumour cell growth, NCI panel, 48 h
In experiment [1] the test system is HOP-92 NSCLC.
Experiment [2] concerns A549 NSCLC.
The test system of experiment [3] is COLO 205 colon.
Experiment [4] has as its system OVCAR-4 ovarian.
The subject of experiment [5] is UACC-257 melanoma.
The subject of experiment [6] is 786-0 renal.
In experiment [7] the test system is SF-539 CNS.
Experiment [8] has as its system MDA-N.
In experiment [9] the test system is MDA-MB-435.
Experiment [10] has as its system HOP-62 NSCLC.
Experiment [11] has as its system SF-268 CNS.

On to `Cn1ccnc1Sc1ccc(C=Nc2ccc3nc(SCC(=O)NC4CCCCC4)sc3c2)cc1[N+](=O)[O-]`, for which the TGI is 32.5 µM in experiment [1]; > 100 µM in experiment [2]; > 100 µM in [3]; > 100 µM in experiment [4]; > 100 µM in [5]; 49 µM in [6]. In addition, the TGI was 22.3 µM in experiment [7]; > 100 µM in [8]; > 100 µM in experiment [9]; > 100 µM in experiment [10]; > 100 µM in [11].

For the compound `O=C(CCc1cccc(O)c1)NCCCNC(=O)CCc1cccc(O)c1`, the TGI in experiment [1], in experiment [2], in [3], in experiment [4], in [5] and in experiment [6] was > 100 µM in each case. For the same compound, the TGI in [7], in experiment [8], in experiment [9], in experiment [10] and in experiment [11] was > 100 µM in each case.

Turning to `CC1=C[C@@H](C)C[C@]2(C)CC[C@H](O2)[C@]23CC[C@](C(=O)O)(C[C@H](O2)[C@@H]2O[C@@](C)(CC2=O)[C@@H](O)[C@H]2CC[C@@]4(CCC[C@@H](O4)[C@H](C)C(=O)O[C@H]4C[C@H]([C@]5(O)OCC[C@H](C)[C@@H]5O)O[C@H]4C=C1)O2)O3`, the TGI in [1] was > 8.25 µM; in experiment [2], > 10 µM; in [3] it was > 10 µM; in experiment [4], > 10 µM; in experiment [5], > 10 µM; in experiment [6], > 10 µM. Also, the TGI in experiment [7], in [8], in experiment [9], in experiment [10] and in [11] was > 10 µM each time.

Take `COc1cc([C@@H]2c3cc4c(cc3[C@@H](c3c(O)cc(O)c5c3O[C@H](c3ccc(O)c(O)c3)[C@@H](O)C5)[C@H]3COC(=O)[C@H]23)OCO4)cc(OC)c1O`: the TGI in experiment [1], in experiment [2], in [3], in experiment [4], in experiment [5] and in experiment [6] was > 100 µM in each case. The TGI in [7], in [8], in [9], in experiment [10] and in experiment [11] was > 100 µM in each case.
